Results on 10 compounds are retold here after PMC11284800 (Journal of Medicinal Chemistry, 2024).

The target in data set [1] is CB1R. Conditions: cited from earlier work.
The target of data set [2] is CB2R. The settings on record: cited from earlier work.
Data set [3] has as its system CB1R. On the set-up: method as in PMID 8070571, PMID 27240274, PMID 24175572. The settings on record: cited from earlier work.
Data set [4] deals with T1, hCB1R (Homo sapiens, UniProt P21554). Nature of the data set: biochemical.
Target sequence in this assay (P21554 91-472): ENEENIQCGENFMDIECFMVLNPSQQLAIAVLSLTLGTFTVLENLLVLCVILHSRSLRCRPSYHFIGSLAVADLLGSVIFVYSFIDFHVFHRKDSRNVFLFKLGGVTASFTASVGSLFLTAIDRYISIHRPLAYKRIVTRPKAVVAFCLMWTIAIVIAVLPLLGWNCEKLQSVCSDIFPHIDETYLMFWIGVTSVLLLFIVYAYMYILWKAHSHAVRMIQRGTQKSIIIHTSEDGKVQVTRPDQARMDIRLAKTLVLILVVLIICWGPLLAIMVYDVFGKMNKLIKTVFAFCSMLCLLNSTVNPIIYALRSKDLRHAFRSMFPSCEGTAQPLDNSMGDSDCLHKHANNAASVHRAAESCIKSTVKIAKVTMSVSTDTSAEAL
For data set [5], the target named is hCB1R. Conditions: cited from earlier work.
The target of data set [6] is hCB2R. The arrangement: method as in PMID 29314831. The settings on record: cited from earlier work.
The subject of data set [7] is CB1R. Nature of the data set: Literature affinity of drug-like ligands, CB1R (Figure 2). The settings on record: from literature Ki values. The format is binding.
Data set [8] concerns the target rCB1R. Conditions: cited from earlier work.
For data set [9], the target named is mCB1R. The settings on record: at 1 μM; cited from earlier work.
In data set [10] the target is T2, human CB2R (Homo sapiens, UniProt P34972).
T2 construct: host or cells: CHO-K1 (CHOK1hCB2_bgal)
Nature of the data set: [3H]CP55,940 displacement assay on CHO membranes, CB2R. The format is binding.

In data set [11] the target is T3, human CB1R on live SNAP-CB1R-HEK293TR cells (Homo sapiens, UniProt P21554).
T3 construct: expressed in transfected cells; host or cells: HEK293TR (tetracycline-inducible)
Format: cell-based. Conditions: 250 nM probe. The method, then: (§1) Human CB1R HEK293TR cells (same transfected cell line as for TR-FRET binding assay was used, see above) were maintained in a humidified environment at 37 °C and 5% CO2 in DMEM with 10% FBS containing blasticidin (5 μg/mL; Invitrogen) and (Zeocin; 20 μg/mL; Invitrogen).
(§2) […] The cell nuclei were stained using 0.9 μM Hoechst 33342 for 1 h incubation. After replacement of medium to serum-free conditions without Phenol red (20 μL), fluorescent probes were added (10 μL) and tested at 250 nM concentration. In case of blocking experiments, nuclei-stained cells were incubated with inhibitors (5 μM) for 30 min under serum-free conditions before probe administration. Confocal live cell imaging was performed using the Opera Phenix High Content Screening System (Revvity) at 22 °C. The probe fluorescence was monitored by kinetic measurements of 10 min with a break for probe administration. The fluorescence of one image per sample was captured using a water immersion objective (63×, NA 1.15, field of view 0.21 × 0.21 mm) at each time point. Probe detection was realized using the appropriate laser for excitation and filter for fluorescence emission. Image acquisition parameters, including laser power, offset, and gain settings, were kept constant.

Data set [12] deals with human CB1R on live SNAP-CB1R-HEK293TR cells. The format is cell-based. The method, then:
as §1, §2

The target in data set [13] is T4, CB2R-HEK293TR (Homo sapiens, UniProt P34972).
T4 construct: expressed in transfected cells; host or cells: HEK293TR (tetracycline-inducible)
Nature of the data set: Live cell confocal imaging, CB2R-HEK293TR cells. The format is cell-based. The settings on record: 250 nM probe, induced CB2R expression. The method, then: Cells were plated onto a 384-well microplate (PhenoPlate, Revvity), at a density of 3500 cells/well (40 μL) with 1 μg/mL tetracycline for receptor-inducible expression and incubated for 48 h. The cell nuclei were stained using 0.9 μM Hoechst 33342 for 1 h incubation. After replacement of medium to serum-free conditions without Phenol red (20 μL), fluorescent probes were added (10 μL) and tested at 250 nM concentration. In case of blocking experiments, nuclei-stained cells were incubated with inhibitors (5 μM) for 30 min under serum-free conditions before probe administration. Confocal live cell imaging was performed using the Opera Phenix High Content Screening System (Revvity) at 22 °C. The probe fluorescence was monitored by kinetic measurements of 10 min with a break for probe administration. The fluorescence of one image per sample was captured using a water immersion objective (63×, NA 1.15, field of view 0.21 × 0.21 mm) at each time point. Probe detection was realized using the appropriate laser for excitation and filter for fluorescence emission. Image acquisition parameters, including laser power, offset, and gain settings, were kept constant.

The nature of data set [14]: Photophysical characterization in PBS. Format: physicochemical. The settings on record: PBS pH 7.4.
The target of data set [15] is T1, hCB1R. Nature of the data set: [3H]CP55,940 displacement assay on CHO membranes, CB1R. The format is binding. The arrangement: host or cells: CHO-K1 (CHOK1hCB1_bgal).
Target sequence in this assay (P21554 whole entry): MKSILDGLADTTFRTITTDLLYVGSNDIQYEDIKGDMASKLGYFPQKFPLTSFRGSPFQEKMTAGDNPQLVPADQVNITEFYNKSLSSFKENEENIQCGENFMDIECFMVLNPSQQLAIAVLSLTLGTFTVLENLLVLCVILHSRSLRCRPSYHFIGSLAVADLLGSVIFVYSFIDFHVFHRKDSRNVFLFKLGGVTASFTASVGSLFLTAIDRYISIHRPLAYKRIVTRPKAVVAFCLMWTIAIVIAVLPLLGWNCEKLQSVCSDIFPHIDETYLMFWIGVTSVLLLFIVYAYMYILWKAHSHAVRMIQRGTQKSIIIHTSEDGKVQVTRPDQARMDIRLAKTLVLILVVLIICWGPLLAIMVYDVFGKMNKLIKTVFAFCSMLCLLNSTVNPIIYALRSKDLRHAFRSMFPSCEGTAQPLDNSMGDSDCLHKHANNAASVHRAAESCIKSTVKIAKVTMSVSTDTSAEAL
For data set [16], the target named is T1, hCB1R. Nature of the data set: HTRF cAMP assay, agonist / inverse agonist mode. Format: cell-based. On the set-up: expressed in transfected cells; host or cells: CHO. On the technique in general: TR-FRET usually uses a lanthanide donor and a delayed reading to cut background.
Target sequence in this assay (P21554 whole entry): as above
For data set [17], the target named is T1, hCB1R. The experiment in a line: HTRF cAMP assay, antagonist mode (forskolin with CP55,940).
Target sequence in this assay (P21554 whole entry): as above
Protocol: The homogeneous time-resolved fluorescence (HTRF) cAMP assay was conducted following the manufacturer’s protocol for the cAMP-Gs Dynamic kit. […] After 15 min, reactions were stopped by the 1× cAMP-d2 conjugate in lysis buffer (5 μL/well), followed by 1× anti-cAMP cryptate conjugate in lysis buffer (5 μL/well). Following a 1 h incubation at room temperature, the plates were read in a Revvity Envision reader for time-resolved fluorescence resonance energy transfer detection at 620 and 665 nm. The HTRF ratio versus compound concentrations was plotted using Prism 8.1 (GraphPad). HTRF ratio = (signal 665 nm/signal 620 nm) × 10^4.
For data set [18], the target named is T1, hCB1R. The experiment in a line: TR-FRET fluorescent ligand binding (saturation and kinetics), HEK293TR-hCB1R cell membranes. On the set-up: a truncated CB1R variant, CB1R91-472 was used to facilitate the FRET; expressed in transfected cells; host or cells: HEK293TR (tetracycline-inducible, pcDNA4/TO).
Target sequence in this assay (P21554 91-472): as the sequence (P21554 91-472) above
Setting [19] is: fluorescent probe, direct association kinetics.

Values joined by “and” are separate entries in the source; they are usually repeats but may differ in a detail not shown here. Equal entries are not always repeated.

T2 sequence (P34972 whole entry): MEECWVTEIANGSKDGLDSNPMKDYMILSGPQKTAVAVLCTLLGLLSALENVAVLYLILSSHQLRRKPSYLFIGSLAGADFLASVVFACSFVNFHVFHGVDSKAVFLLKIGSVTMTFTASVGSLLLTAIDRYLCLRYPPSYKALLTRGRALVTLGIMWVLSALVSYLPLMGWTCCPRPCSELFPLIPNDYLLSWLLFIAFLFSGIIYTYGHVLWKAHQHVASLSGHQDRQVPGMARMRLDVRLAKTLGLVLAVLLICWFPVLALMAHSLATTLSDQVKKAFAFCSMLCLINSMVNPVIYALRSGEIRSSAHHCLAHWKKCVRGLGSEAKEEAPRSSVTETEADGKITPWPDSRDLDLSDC
T3 sequence (P21554 91-472): as the sequence (P21554 91-472) above
T4 sequence (P34972 whole entry): as the sequence (P34972 whole entry) above

For the compound `O=C(NN1CCCCC1)c1nn(-c2ccc(Cl)cc2Cl)c2c1CCCc1cc(Cl)ccc1-2` [Compound 7, NESS-0327], the Ki in [1] was 4.2 nM; in data set [2], 55.7 nM. Also, the “Functional profile at CB1R (in words)” value in [3] is “neutral antagonist”.

In data set [4], `CCCCCCC(C)(C)c1cc(O)c2c(c1)OC(C)(C)[C@@H]1CC=C(CO)C[C@@H]21` [HU210] gave a Kd of 3.04 nM, a koff of 0.00183 s⁻¹ and a kon of 623000 M⁻¹ s⁻¹. Further, the Ki in data set [4] (Ki) is 2.08 nM and 1.26 nM. Moreover, in data set [4] (pKi), affinity was put at a Ki of 2.04 nM. The residence time in data set [4] (read-out: RT (residence time)) is 9.1 min.

Consider `CCCCCCC(C)(C)c1cc(O)c2c(c1)OC(C)(C)[C@@H]1CC=C(CNC(=O)CCCCCNC(=O)c3ccc(-c4c5ccc(=N)c(S(=O)(=O)O)c-5oc5c(S(=O)(=O)O)c(N)ccc45)c(C(=O)O)c3)C[C@@H]21` [HU210-Alexa488], for which the Ki in data set [5] is 27 ± 4 nM; in [6], 800 ± 200 nM.

Take `CC(C)[C@H](NC(=O)c1nn(Cc2cccc(F)c2)c2ccccc12)C(N)=O` [Compound 10, AB-FUBINACA 3-F benzyl]: the “Ki(CB2R)/Ki(CB1R) selectivity” value in [7] came to 4 fold. Besides, the Ki in [1] is 12.6 nM; in data set [2], 52.5 nM. Moreover, the “Functional profile at CB1R (in words)” value in data set [3] was “agonist”.

As to `COCCOc1ncc(C(=O)NC[C@](C)(O)C2CC2)nc1-c1ccc(Cl)cc1` [Compound 9], the Ki in [1] was 47.5 nM; in data set [2], greater than 475 nM. Besides, the “Functional profile at CB1R (in words)” value in data set [3] is listed as “inverse agonist”.

With `Cc1c(C(=O)NN2CCCCC2)nn(-c2ccc(Cl)cc2Cl)c1-c1ccc(-c2ccc(CCCNC(=O)c3ccc4c(c3)C(=O)OC43c4ccc(N(C)C)cc4Oc4cc(N(C)C)ccc43)cc2)cc1` [Compound T1117], the Kd in [8] was 460 ± 80 nM. In data set [9], the “Ki(mCB1R): displacement” value was 10%.

In the case of `O=C(NC1CCCCC1O)c1cnc(OCC2CC2)c(-c2ccc(F)cc2)c1` (stereo not drawn) [Compound 8], the Ki in data set [1] was 42.8 nM; in data set [2], greater than 10000 nM. Moreover, the “Functional profile at CB1R (in words)” value in [3] is “inverse agonist”.

On to `CCCCCCC(C)(C)c1cc(O)c2c(c1)OC(C)(C)c1ccc(CNCCCCCCNC(=O)CCCCCC[N+]3=C(/C=C/C=C/C=C4/N(C)c5ccc(S(=O)(=O)O)cc5C4(C)C)C(C)(C)c4cc(S(=O)(=O)[O-])ccc43)cc1-2` [ABP511], for which, in data set [5], the inhibition constant (Ki) was 3.5 nM.

As for `CCC(CC)(NC(=O)c1cc(-c2cc(C(F)(F)F)ccc2C(F)(F)F)n(C[C@H]2CCCO2)c1C)C(=O)NCCOCCOCCNC(=O)c1ccc2c(c1)C(=O)OC21c2ccc(N(C)C)cc2Oc2cc(N(C)C)ccc21` [Compound 29], in data set [10] ([3H]CP55,940 displacement at 10 µM compound, ± SEM), the “hCB2R % displacement at 10 µM” value stood at 18 ± 5%. Moreover, the Ki in data set [10] (read-out: hCB2R Ki, [3H]CP55,940 displacement, CHO membranes stably expressing human CB2R, means of three experiments) is greater than 10000 nM. The “Staining of CB1R on induced CB1R-HEK293TR cells” value in data set [11] (confocal microscopy) was “selectively stain and visualize CB1R”. Also, in data set [11] (induced CB1R-HEK293TR cells), the “Time to staining of CB1R” value is given as no more than 10 min. Also, the “Staining of uninduced CB1R-HEK293TR cells” value in data set [12] (250 nM probe, no CB1R expression) is “no staining”. In addition, in data set [12] (concluded from intracellular staining in live CB1R-HEK293TR cells), the “Passive permeation of outer cell membrane” value is reported as “able to passively permeate the outer cell membrane”. Further, in data set [13], the “Staining of CB2R-HEK293TR cells” value is “no staining”. In addition, in [14], the “Abs (absorbance maximum)” value worked out at 555 nm; the “Em (emission maximum)” value was determined as 585 nm; the “QY (quantum yield)” value is 36.60% and 37%. In addition, the “hCB1R pKi ± SEM” value in data set [15] ([3H]CP55,940 displacement, CHO membranes) stood at 5.68 ± 0.29. Besides, the “Ki(CB2R)/Ki(CB1R)” value in data set [15] (radioligand binding Ki ratio) is listed as greater than 4.8. The Ki in data set [15] (read-out: hCB1R Ki, [3H]CP55,940 displacement, CHO membranes stably expressing human CB1R, means of three experiments) amounted to 2080 nM. Also, the Emax in data set [16] is -64%. For the same compound, the “Functional activity at CB1R (in words)” value in data set [16] (CB1R cAMP HTRF assay) was “inverse agonists”. In addition, the “Functional activity CB1R (cAMP assay) pEC50 or pIC50 ± SEM” value in data set [16] (inverse agonists, n.a. is no activity) was 6.99 ± 0.09. Besides, the IC50 in data set [16] (read-out: Functional activity (cAMP assay) IC50, cells stably expressing hCB1R, HTRF cAMP, inverse agonists, n.a. denotes no activity) is 102 nM. Also, the “Antagonist activity (cAMP assay) pEC50 or pIC50 ± SEM” value in data set [17] (antagonist mode, n.a. is no activity) is 5.7 ± 0.16. Moreover, in [17] (read-out: Variation of Emax), the Emax was -88%. In [18] (setting [19]), this compound gave a koff of 0.00433 s⁻¹ and a kon of 13500 M⁻¹ s⁻¹. Besides, the residence time in [18] (fluorescent probe, read-out: RT (residence time)) worked out at 3.85 min. Moreover, the Kd in data set [18] (read-out: kinetic KD, fluorescent probe) was 365 nM. For the same compound, the Kd in data set [18] (read-out: saturation binding KD, TR-FRET saturation binding after 60 min) worked out at 335 nM.

On to `Cc1c(C(=O)NC2CCCCC2)cc(-c2cc(C(F)(F)F)ccc2C(F)(F)F)n1CC1CCCO1` (stereo not drawn) [Compound 5], for which the IC50 in data set [1] is 8 nM; in [2] it was greater than 80 nM. Also, the “Functional profile at CB1R (in words)” value in data set [3] was “inverse agonist”.

By Ki is commonly meant a measure of affinity in units of concentration, obtained from inhibition or displacement. In general, koff refers to the first-order rate constant of dissociation. Higher therefore signals a short-lived complex. Broadly, the kon is the rate constant with which the complex forms. One may read the Emax as the size of the effect at its maximum, as opposed to the concentration needed. The term IC50 denotes the concentration that gives 50% inhibition.
